Assay results published in the NIST ThermoML archive (doi:10.1016/j.jct.2007.02.009).
“And” between values parts separate entries of the source, which are not always exact repeats. Equal entries are not always repeated.

Assay: molar heat capacity at constant pressure
Settings: 101.33 kPa

CN(C)C=O [dimethylformamide]
Crystal
Settings	molar heat capacity at constant pressure [J/K/mol]
5 K	0.221
7.54 K	0.753
7.59 K	0.763
8.21 K	0.931
8.29 K	0.964
8.88 K	1.19
9.41 K	1.46
9.52 K	1.55
9.91 K	1.74
10 K	1.79
10.37 K	1.995
10.81 K	2.263
11.24 K	2.533
11.66 K	2.776
12.07 K	2.996
12.44 K	3.216
12.83 K	3.574
13.05 K	3.741
13.48 K	4.017
14.16 K	4.518
14.83 K	5.048
15 K	5.187
15.49 K	5.622
16.15 K	6.115
16.81 K	6.702
17.45 K	7.307
18.1 K	7.9
18.75 K	8.506
19.2 K	8.88
19.64 K	9.354
20 K	9.678
20.28 K	9.986
21.81 K	11.31
24.35 K	13.98
25 K	14.64
26.01 K	15.67
28.18 K	17.9
29.89 K	19.58
30 K	19.63
32.35 K	21.81
34.82 K	24.08
37.3 K	26.24
39.15 K	27.83
40 K	28.52
40.98 K	29.35
42.91 K	30.92
43.45 K	31.29
44.78 K	32.3
45.93 K	33.16
49.17 K	35.67
50 K	36.34
51.08 K	37.1
53.56 K	38.97
56.03 K	40.81
58.51 K	42.63
60 K	43.49
60.98 K	44.1
63.46 K	45.65
65.93 K	47.18
68.4 K	49.19
70 K	49.95
70.88 K	50.36
73.21 K	52.04
75.22 K	52.99
77.32 K	54.31
79.34 K	55.1
80 K	55.45
82.06 K	56.51
84.87 K	57.9
87.85 K	59.4
90 K	60.47
90.82 K	60.89
93.8 K	62.3
96.76 K	63.67
99.73 K	65.16
100 K	65.36
102.7 K	66.55
105.67 K	67.8
106.15 K	68.12
108.64 K	69.18
109.01 K	69.31
110 K	69.68
111.61 K	70.34
111.97 K	70.65
114.57 K	71.6
114.94 K	71.75
117.89 K	73.04
120 K	73.76
120.75 K	74.11
123.71 K	75.3
126.68 K	76.26
129.64 K	77.49
130 K	77.82
132.61 K	78.6
138.24 K	80.9
140 K	81.78
146.91 K	84.72
149.76 K	85.72
150 K	85.56
152.73 K	86.72
155.69 K	87.47
158.66 K	88.47
160 K	89.05
161.62 K	89.38
164.59 K	90.46
167.56 K	91.54
170 K	92.62
170.53 K	92.79
173.49 K	94.53
178.4 K	96.61
180 K	96.36
184.4 K	99.44
184.65 K	101.2
190 K	100.5
191.1 K	105.5
191.8 K	105
198.9 K	124.1
200 K	104.6
200.5 K	130.6
201.1 K	139.5
201.51 K	150.5
210 K	107.7
212.86 K	108.1

Liquid, Vacuum adiabatic calorimetry
Settings	molar heat capacity at constant pressure
212.86 K	141.4 J/K/mol
213 K	142.4 J/K/mol
215.3 K	141.5 J/K/mol
216.03 K	141.8 J/K/mol
217.78 K	141.7 J/K/mol
217.98 K	142 J/K/mol
220 K	141.9 J/K/mol
220.95 K	141.8 J/K/mol
222.56 K	142 J/K/mol
223.91 K	142.2 J/K/mol
225.22 K	142.2 J/K/mol
226.86 K	142.2 J/K/mol
228.18 K	142.4 J/K/mol
229.81 K	142.5 J/K/mol
230 K	142.5 J/K/mol
230.54 K	142.5 J/K/mol
231.13 K	142.7 J/K/mol
232.77 K	142.5 J/K/mol
233.19 K	142.9 J/K/mol
235.55 K	142.5 J/K/mol
235.72 K	142.8 J/K/mol
236.14 K	142.7 J/K/mol
238.66 K	143 J/K/mol
238.73 K	143.2 J/K/mol
239.07 K	143 J/K/mol
240 K	143 J/K/mol
241.6 K	143.1 J/K/mol
242.25 K	143.5 J/K/mol
244.54 K	143.3 J/K/mol
245.77 K	143.3 J/K/mol
247.48 K	143.4 J/K/mol
249.28 K	143.4 J/K/mol
250 K	143.6 J/K/mol
250.41 K	143.5 J/K/mol
252.78 K	143.7 J/K/mol
253.34 K	143.5 J/K/mol
256.26 K	143.9 J/K/mol
256.28 K	144.1 J/K/mol
259.17 K	144 J/K/mol
260 K	144.2 J/K/mol
261.17 K	144.3 J/K/mol
262.1 K	144.3 J/K/mol
262.79 K	144.5 J/K/mol
263.79 K	144.4 J/K/mol
265.01 K	144.6 J/K/mol
266.68 K	144.8 J/K/mol
267.92 K	144.6 J/K/mol
269.56 K	145 J/K/mol
270 K	144.9 J/K/mol
270.82 K	144.8 J/K/mol
272.44 K	145.3 J/K/mol
273.71 K	145 J/K/mol
275.31 K	145.4 J/K/mol
276.6 K	145.4 J/K/mol
278.16 K	145.6 J/K/mol
279.47 K	145.6 J/K/mol
280 K	145.9 J/K/mol
281.01 K	146.1 J/K/mol
283.85 K	146.6 J/K/mol
286.68 K	146.7 J/K/mol
289.51 K	147 J/K/mol
290 K	147.1 J/K/mol
292.32 K	147.4 J/K/mol
298.15 K	148.2 J/K/mol and 148.2 J/K/mol
300 K	148.5 J/K/mol
301.5 K	148.7 J/K/mol
305 K	149 J/K/mol
